# Measured values reported in article PMC4627800, “Allelic Variation of Cytochrome P450s Drives Resistance to Bednet Insecticides in a Major Malaria Vector” (PLoS Genetics, 2015).
# Columns and labels:
# MALCYP6P9b = MALCYP6P9b (Anopheles funestus, UniProt B5AII7); assay: Pyrethroid depletion (metabolism) assay with recombinant enzyme; assay type: biochemical; conditions: 20μM insecticide, 1 hour, vs -NADPH
# Description: Membrane expressing recombinant CYP6P9a/-b and AgCPR, and reconstituted cytochrome b5 were added to the side of the tube and pre-incubated for 5 minutes at 30°C, with shaking at 1,200 rpm to activate the membrane. 20μM of test insecticide was then added into the final volume of 0.2ml (~2.5% v/v methanol), and reaction started by vortexing at 1,200 rpm and 30°C for 1 hour. Reactions were quenched with 0.1ml ice-cold methanol and incubated for 5 more minutes. Tubes were then centrifuged at 16,000 rpm and 4°C for 15 minutes, and 150μl of supernatant transferred into HPLC vials for analysis. Reactions were carried out in triplicates with experimental samples (+NADPH) and negative controls (-NADPH). 100μl of sample was loaded onto an isocratic mobile phase (90:10 v/v methanol to water) with a flow rate of 1ml/min, monitoring wavelength of 226nm and peaks separated with a 250mm C18 column (Acclaim 120, Dionex) on Agilent 1260 Infinity at 23°C. Enzyme activity was calculated as percentage depletion (the difference in the amount of insecticide(s) remaining in the +NADPH tubes compared with the–NADPH) and a t-test used for statistical analysis.
# FANGCYP6P9b = FANGCYP6P9b (Anopheles funestus, UniProt A0A0S1RZ61)
# Description: (§1) Reactions were performed in triplicates both for +NADPH (experimental tubes) and–NADPH (negative control). K m and V max were established from the plot of substrate concentrations against the initial velocities and fitting of the data to the Michaelis-Menten module using the least squares non-linear regression, as described in the GraphPad Prism 6.03 Software (GraphPad Inc., La Jolla, CA, USA).
# FANGCYP6P9a = FANGCYP6P9a (Anopheles funestus, UniProt K7Z0P3)
# Description: as §1
# MALCYP6P9a = MALCYP6P9a (Anopheles funestus, UniProt B5AII6); assay: Steady-state kinetics of pyrethroid metabolism; assay type: biochemical
# Description: as §1
# BENCYP6P9b = BENCYP6P9b (Anopheles funestus, UniProt A0A0S1S7Y0); assay: Steady-state kinetics of pyrethroid metabolism; assay type: biochemical
# Description: as §1
# BENCYP6P9a = BENCYP6P9a (Anopheles funestus, UniProt A0A0S1RZ75); assay: Steady-state kinetics of pyrethroid metabolism; assay type: biochemical
# Description: as §1
# UGANCYP6P9a = UGANCYP6P9a (Anopheles funestus, UniProt B5AII6); assay: Steady-state kinetics of pyrethroid metabolism; assay type: biochemical
# Description: as §1
# UGANCYP6P9b = UGANCYP6P9b (Anopheles funestus, UniProt A0A0S1S7Y0); assay: Steady-state kinetics of pyrethroid metabolism; assay type: biochemical
# Description: as §1
smiles,measurement,setting,value
CC1(C)C(C=C(Cl)Cl)C1C(=O)OCc1cccc(Oc2ccccc2)c1 (stereo not shown) [permethrin],Percentage depletion,MALCYP6P9b,more than 90%
same,Percentage depletion,MALCYP6P9b; listed as Permethrin,91.6±2.5 %
same,Kcat,FANGCYP6P9b,0.075 ± 0.0225 s⁻¹
same,Km,FANGCYP6P9b,20.5 ± 8.31 µM
same,Kcat,FANGCYP6P9a,0.0825 ± 0.032 s⁻¹
same,Kcat,MALCYP6P9a,15.41±6.30^a min^-1
same,Km,MALCYP6P9a,18.8 ± 11.8 µM
same,"Kcat, fold higher than FANGCYP6P9a",MALCYP6P9a; MALCYP6P9a vs FANGCYP6P9a,3 fold
same,"catalytic efficiency, fold higher than FANGCYP6P9a",MALCYP6P9a; MALCYP6P9a vs FANGCYP6P9a,6 fold
same,Kcat,BENCYP6P9b,15.91±5.45^b min^-1
same,"Kcat, fold higher than FANGCYP6P9b",BENCYP6P9b; BENCYP6P9b vs FANGCYP6P9b,4 fold
same,Kcat,BENCYP6P9a,9.37±3.32^a min^-1
same,"Kcat, fold higher than FANGCYP6P9a",BENCYP6P9a; BENCYP6P9a vs FANGCYP6P9a,2 fold
same,"catalytic efficiency, fold higher than FANGCYP6P9a",BENCYP6P9a; BENCYP6P9a vs FANGCYP6P9a,3 fold
same,Kcat,UGANCYP6P9a,0.122 ± 0.017 s⁻¹
same,"Kcat, fold higher than FANGCYP6P9a",UGANCYP6P9a; UGANCYP6P9a vs FANGCYP6P9a,2 fold
same,"catalytic efficiency, fold higher than FANGCYP6P9a",UGANCYP6P9a; UGANCYP6P9a vs FANGCYP6P9a,3 fold
same,Kcat,UGANCYP6P9b,8.61±3.40^b min^-1
same,"Kcat, fold higher than FANGCYP6P9b",UGANCYP6P9b; UGANCYP6P9b vs FANGCYP6P9b,2 fold
